Where a name gives a salt, the structure may show the parent alone. Read-outs that look alike come from different tables or passages of the source.
How the values were obtained:
[1] = tested on: Candida albicans; details: cited from earlier work
[2] = male and female rabbits, percutaneous; cited from earlier work
[3] = tested on: Trichophyton mentagrophytes; experiment: Antifungal activity on Sabouraud agar medium, MIC and FIC index (Test Examples 1 and 2); type: cell-based; details: cultured 7 days
Method: (§1) Amorolfine hydrochloride and each specimen (hereinafter referred to as “medicine”) at a mass ratio of 1:1 were dissolved in dimethyl sulfoxide (DMSO). Two-fold dilution series were prepared with DMSO. In the determination of the antifungal activity, the medicine and the medium were mixed together at a ratio of 1:99.
(§2) Sabouraud agar medium (Eiken) was used as a susceptibility determination medium. A microbe suspension containing 10^6 spores/mL of Candida albicans or about 10^6 conidia/mL of ringworm fungus was prepared. 5 μl of the suspension was inoculated on the Sabouraud agar medium containing the medicine with a micro-planter (a product of Sakuma Seisakusho). Candida albicans was cultured for 2 days and the tinea was cultured for 7 days. […]

[4] = tested on: Trichophyton rubrum; experiment: as above; type: cell-based; details: cultured 7 days
Method: as §1, §2

[5] = mice, cited from earlier work
[6] = tested on: Candida albicans; experiment: Antifungal activity on Sabouraud agar medium, MIC and FIC index (Test Examples 1 and 2); type: cell-based; details: cultured 2 days
Method: as §1
(§3) Sabouraud agar medium (Eiken) was used as a susceptibility determination medium. A microbe suspension containing 10^6 spores/mL of Candida albicans or about 10^6 conidia/mL of ringworm fungus was prepared. 5 μl of the suspension was inoculated on the Sabouraud agar medium containing the medicine with a micro-planter (a product of Sakuma Seisakusho). Candida albicans was cultured for 2 days and the tinea was cultured for 7 days.
The effect obtained by the combination was judged on the basis of the following standards (FIC index): • >2: antagonism • 2>and 1<: additive action • 1>: potentiation
(1) Amorolfine hydrochloride and each specimen (hereinafter referred to as “medicine”) at a mass ratio of 100:1 to 1:100 were dissolved in dimethyl sulfoxide (DMSO). Two-fold dilution series were prepared with DMSO. In the determination of the antifungal activity, the medicine and the medium were mixed together at a ratio of 1:99.
(2) Amorolfine hydrochloride and each specimen (hereinafter referred to as “medicine”) at a mass ratio of 1:3 to 3:1 were dissolved in dimethyl sulfoxide (DMSO). Two-fold dilution series were prepared with DMSO. In the determination of the antifungal activity, the medicine and the medium were mixed together at a ratio of 1:99.
as §3, with “conidia/mL of each of two kinds of ringworm fungus” for “conidia/mL of ringworm fungus”, “agar medium with a” for “agar medium containing the medicine with a”, “and the Tinea fungus was cultured” for “and the tinea was cultured”

[7] = rats, cited from earlier work
[8] = in vivo; cited from earlier work
[9] = tested on: Trichophyton mentagrophytes; details: at a low concentration; cited from earlier work
[10] = rabbit, in vivo; cited from earlier work
[11] = tested on: Trichophyton mentagrophytes TIMM 1189; experiment: Tinea infection model of guinea pigs, culture test (Test Example 3); type: in vivo; details: 0.75 mass % in polyethylene glycol 400 (combination 1:2), 0.1 mL once a day for 5 days from 3 days after inoculation; culture on 5th day after last application; 10 loci
Method: Amorolfine hydrochloride and each specimen (hereinafter referred to as “medicine”) at a mass ratio of 1:2 were dissolved in polyethylene glycol 400 to obtain a final concentration of 0.75% mass ratio. Each of amorolfine hydrochloride and the medicines was separately dissolved in polyethylene glycol 400 to obtain solutions having the final concentration of 0.75 mass %.
Male Hartley guinea pigs (Japan SLC Co., Ltd.; 6 weeks) were used. In the course of the test, they were kept separately from one another in an isolator (Negative rack, CLEA JAPAN, Inc.). They could freely have a solid food (G standard, Nihon Nosan Kogyo KK) and water.
Trichophyton mentagrophytes TIMM 1189 was cultured on slant Sabouraud glucose agar medium at 27° C. for 14 days. Then, sterilized saline containing 0.05% of Tween 80 was added thereto to obtain conidia. The resultant suspension was filtered through a cell strainer (FALCON Co., Ltd.) to remove large mycelian masses. The number of conidia was counted with hemocytometer. The conidia were diluted to 4×10^7/mL with sterilized saline containing 0.05% of Tween 80 to obtain the conidial suspension for inoculation.
The back of each guinea pig was shaved. Then, a circular inoculation part having a diameter of 2 cm was positioned on both sides of the spinal column. A gummed tape was applied thereto and then peeled. These steps was repeated three times, whereby the hair was pulled out of the skin in both parts and, at the same time, the top of the corneous layer of the skin was peeled off. The remaining hair was completely removed with tweezers. […]
When at least one of the 10 small pieces taken from one inoculated locus of the skin was the positive after the culture, the inoculated locus was judged to be positive. The ratio of positive loci after culture was calculated from the number of the cultured positive pieces in the total 10 inoculated loci in each experiment group.
The number of the cultured positive small pieces in the inoculated portion was scored as will be described below to determine the infection. […]

[12] = Test Example 1, amorolfine hydrochloride + medicine at mass ratio 1:1

CN(C/C=C/C#CC(C)(C)C)Cc1cccc2ccccc12 [terbinafine hydrochloride, (E)-N-(6,6-dimethyl-2-hepten-4-ynyl)-N-methyl-1-naphthalenemethylamine hydrochloride]
concentration that exhibits a fungistatic effect on the propagation of the yeast form [1]: at least 1 μg/mL | concentration that inhibits the conversion from yeast form to mycelial form [1]: at least 0.098 μg/mL | LD50 [2]: > 1500 mg/kg | FIC index obtained by the combination of amorolfine hydrochloride with another medicine [3, 12]: 0.52 | MIC ([3]; Trichophyton mentagrophytes, 168 h, Test Example 2, geometric mean MIC of two strains, read-out: Minimum inhibitory concentration (MIC)): 0.011 mg/L | FIC index obtained by the combination of amorolfine hydrochloride with another medicine [4, 12]: 0.75 | MIC ([4]; Trichophyton rubrum, 168 h, Test Example 2, geometric mean MIC of two strains, read-out: Minimum inhibitory concentration (MIC)): 0.004 mg/L | LD50 ([5]; intravenous injection, female): 377 mg/kg | LD50 ([5]; intravenous injection, male): 410 mg/kg | LD50 ([5]; oral, female): > 4000 mg/kg | LD50 ([5]; oral, male): 3570 mg/kg | LD50 ([5]; subcutaneous, male and female): > 2000 mg/kg | MIC ([6]; Candida albicans, 48 h, Test Example 2, geometric mean MIC of two strains, read-out: Minimum inhibitory concentration (MIC)): > 8 mg/L | FIC index obtained by the combination of amorolfine hydrochloride with another medicine [6, 12]: 0.27 | Minimum inhibitory concentration (MIC) ([6]; Test Example 2, geometric mean MIC of two strains, listed as T, hydrochloride): >8.0 mg/L | LD50 ([7]; intravenous injection, female): 206 mg/kg | LD50 ([7]; intravenous injection, male): 220 mg/kg | LD50 ([7]; oral, male and female): > 4000 mg/kg | LD50 ([7]; percutaneous, male and female): > 2000 mg/kg | LD50 ([7]; subcutaneous, male and female): > 2000 mg/kg | increase in the body weight of dams [8]: suppression on the increase in the body weight of dams | influence on the reproduction and the growth of the embryos [8]: no influence was recognized | effect on germinated conidium of Trichophyton mentagrophytes [9]: fungicidal effect | localized irritation [10]: a weak irritation or a light cumulative irritation | rate of positive loci after culture [11]: 100%
